Experimental data reported in PubChem BioAssay AID1963839 (Molecular Pharmacology Branch, DTP, NCI, 2024).

Tested on: 817829-284-R-J1-PDC complex spheroid viability
Experiment: Anticancer human tumor 817829-284-R-J1-PDC patient-derived colon adenocarcinoma cell line growth inhibition [POLQ]
Conditions: for IC50: curve of first compound; for viability, T/C: stronger effect = lower value
Method in brief: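 Growth inhibition in 3D: complex spheroids (tumor PDC, HUVEC, MSC) treated with POLQ inhibitor combinations; where Cmax unknown, highest tested concentration 10 microM, except SN-38 at 1 microM.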

[1] = second compound 0.0316 µM, first compound 0.0316 µM
[2] = second compound 0.0316 µM, first compound 0.1 µM
[3] = second compound 0.0316 µM, first compound 0.316 µM
[4] = second compound 0.0316 µM, first compound 1 µM
[5] = second compound 0.0316 µM, first compound 3.16 µM
[6] = second compound 0.0316 µM, first compound 10 µM
[7] = second compound 0.1 µM, first compound 0.0316 µM
[8] = second compound 0.1 µM, first compound 0.1 µM
[9] = second compound 0.1 µM, first compound 0.316 µM
[10] = second compound 0.1 µM, first compound 1 µM
[11] = second compound 0.1 µM, first compound 3.16 µM
[12] = second compound 0.1 µM, first compound 10 µM
[13] = second compound 0.316 µM, first compound 0.0316 µM
[14] = second compound 0.316 µM, first compound 0.1 µM
[15] = second compound 0.316 µM, first compound 0.316 µM
[16] = second compound 0.316 µM, first compound 1 µM
[17] = second compound 0.316 µM, first compound 3.16 µM
[18] = second compound 0.316 µM, first compound 10 µM
[19] = second compound 1 µM, first compound 0.0316 µM
[20] = second compound 1 µM, first compound 0.1 µM
[21] = second compound 1 µM, first compound 0.316 µM
[22] = second compound 1 µM, first compound 1 µM
[23] = second compound 1 µM, first compound 3.16 µM
[24] = second compound 1 µM, first compound 10 µM
[25] = second compound 3.16 µM, first compound 0.0316 µM
[26] = second compound 3.16 µM, first compound 0.1 µM
[27] = second compound 3.16 µM, first compound 0.316 µM
[28] = second compound 3.16 µM, first compound 1 µM
[29] = second compound 3.16 µM, first compound 3.16 µM
[30] = second compound 3.16 µM, first compound 10 µM
[31] = second compound 10 µM, first compound 0.0316 µM
[32] = second compound 10 µM, first compound 0.1 µM
[33] = second compound 10 µM, first compound 0.316 µM
[34] = second compound 10 µM, first compound 1 µM
[35] = second compound 10 µM, first compound 3.16 µM
[36] = second compound 10 µM, first compound 10 µM
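Note: spheroids exposed to compounds for 7 days.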
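Throughout, for viability, T/C: 100% = DMSO vehicle-treated spheroids.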

## C#Cc1c(F)ccc2cc(O)cc(-c3ncc4c(N5CC6CCC(C5)N6)nc(OCC56CCCN5CC(F)C6)nc4c3F)c12 (stereo unspecified) + Cc1cccc(N(C)C(=O)C2C(O)CCN2c2nc(C)cc(C(F)(F)F)c2C#N)c1
Second compound 0.0316 µM
  IC50: > 10 µM
Second compound 0.1 µM
  IC50: > 10 µM
Second compound 0.316 µM
  IC50: > 10 µM
Second compound 1 µM
  IC50: 7.2 µM
Second compound 3.16 µM
  IC50: > 10 µM
Second compound 10 µM
  IC50: 8.06 µM
[1]
  viability, T/C: 104%
[2]
  viability, T/C: 112%
[3]
  viability, T/C: 85.5%
[4]
  viability, T/C: 85.9%
[5]
  viability, T/C: 112%
[6]
  viability, T/C: 60.9%
[7]
  viability, T/C: 93%
[8]
  viability, T/C: 75.6%
[9]
  viability, T/C: 88%
[10]
  viability, T/C: 95.1%
[11]
  viability, T/C: 136%
[12]
  viability, T/C: 76%
[13]
  viability, T/C: 62.5%
[14]
  viability, T/C: 75.8%
[15]
  viability, T/C: 95%
[16]
  viability, T/C: 97.9%
[17]
  viability, T/C: 79.7%
[18]
  viability, T/C: 63.5%
[19]
  viability, T/C: 94.7%
[20]
  viability, T/C: 86.9%
[21]
  viability, T/C: 93%
[22]
  viability, T/C: 118%
[23]
  viability, T/C: 97%
[24]
  viability, T/C: 31.2%
[25]
  viability, T/C: 108%
[26]
  viability, T/C: 82.3%
[27]
  viability, T/C: 86.1%
[28]
  viability, T/C: 87%
[29]
  viability, T/C: 97.3%
[30]
  viability, T/C: 89.4%
[31]
  viability, T/C: 99.7%
[32]
  viability, T/C: 108%
[33]
  viability, T/C: 90.2%
[34]
  viability, T/C: 96.4%
[35]
  viability, T/C: 89.3%
[36]
  viability, T/C: 40.7%

## CCc1cc2c(N3CCc4c(cc(Cn5ccnc5)cc4-c4cn(C)nc4C(F)(F)F)C3=O)cc(C)nc2c(OC)n1 + Cc1cccc(N(C)C(=O)C2C(O)CCN2c2nc(C)cc(C(F)(F)F)c2C#N)c1
Second compound 0.0316 µM
  IC50: 1.78 µM
Second compound 0.1 µM
  IC50: 2.49 µM
Second compound 0.316 µM
  IC50: 1.18 µM
Second compound 1 µM
  IC50: 1.63 µM
Second compound 3.16 µM
  IC50: 2.68 µM
Second compound 10 µM
  IC50: 1.36 µM
[1]
  viability, T/C: 85.3%
[2]
  viability, T/C: 65.6%
[3]
  viability, T/C: 68.5%
[4]
  viability, T/C: 59.6%
[5]
  viability, T/C: 41.8%
[6]
  viability, T/C: 32.9%
[7]
  viability, T/C: 88.9%
[8]
  viability, T/C: 77.5%
[9]
  viability, T/C: 62.2%
[10]
  viability, T/C: 73.8%
[11]
  viability, T/C: 43.6%
[12]
  viability, T/C: 28.8%
[13]
  viability, T/C: 72%
[14]
  viability, T/C: 83.9%
[15]
  viability, T/C: 94%
[16]
  viability, T/C: 53.1%
[17]
  viability, T/C: 38.8%
[18]
  viability, T/C: 22.9%
[19]
  viability, T/C: 84.1%
[20]
  viability, T/C: 64.3%
[21]
  viability, T/C: 81.8%
[22]
  viability, T/C: 52.9%
[23]
  viability, T/C: 43.3%
[24]
  viability, T/C: 30.2%
[25]
  viability, T/C: 79.4%
[26]
  viability, T/C: 87.9%
[27]
  viability, T/C: 66.6%
[28]
  viability, T/C: 59.3%
[29]
  viability, T/C: 51%
[30]
  viability, T/C: 33.8%
[31]
  viability, T/C: 71.4%
[32]
  viability, T/C: 78.2%
[33]
  viability, T/C: 66.2%
[34]
  viability, T/C: 56.9%
[35]
  viability, T/C: 34.3%
[36]
  viability, T/C: 26.7%

## O=C(Nc1ccc(O)c(NS(=O)(=O)c2ccc(F)cc2)c1)c1ccc(-c2ccccc2)cc1 + Cc1cccc(N(C)C(=O)C2C(O)CCN2c2nc(C)cc(C(F)(F)F)c2C#N)c1
Second compound 0.0316 µM
  IC50: 8.08 µM
Second compound 0.1 µM
  IC50: 7.5 µM
Second compound 0.316 µM
  IC50: 8.91 µM
Second compound 1 µM
  IC50: 6.36 µM
Second compound 3.16 µM
  IC50: 5.44 µM
Second compound 10 µM
  IC50: 5.2 µM
[1]
  viability, T/C: 110%
[2]
  viability, T/C: 106%
[3]
  viability, T/C: 113%
[4]
  viability, T/C: 78.7%
[5]
  viability, T/C: 91.2%
[6]
  viability, T/C: 41%
[7]
  viability, T/C: 98.8%
[8]
  viability, T/C: 79.1%
[9]
  viability, T/C: 106%
[10]
  viability, T/C: 90.5%
[11]
  viability, T/C: 72.6%
[12]
  viability, T/C: 42.5%
[13]
  viability, T/C: 96.3%
[14]
  viability, T/C: 93.2%
[15]
  viability, T/C: 95.9%
[16]
  viability, T/C: 87.9%
[17]
  viability, T/C: 87.6%
[18]
  viability, T/C: 45.5%
[19]
  viability, T/C: 80.6%
[20]
  viability, T/C: 90.5%
[21]
  viability, T/C: 92.4%
[22]
  viability, T/C: 94.7%
[23]
  viability, T/C: 64.8%
[24]
  viability, T/C: 40.4%
[25]
  viability, T/C: 95.6%
[26]
  viability, T/C: 101%
[27]
  viability, T/C: 102%
[28]
  viability, T/C: 98.9%
[29]
  viability, T/C: 60.8%
[30]
  viability, T/C: 37.9%
[31]
  viability, T/C: 98.4%
[32]
  viability, T/C: 84.5%
[33]
  viability, T/C: 92.5%
[34]
  viability, T/C: 83.7%
[35]
  viability, T/C: 65%
[36]
  viability, T/C: 30%
